The record followed here is article PMC8815882, “Screening the pandemic response box identified benzimidazole carbamates, Olorofim and ravuconazole as promising drug candidates for the treatment of eumycetoma” (PLoS Neglected Tropical Diseases, 2022).

Read-outs that look alike come from different tables or passages of the source.

For the test, the system named is M. mycetomatis genome strain MM55. As to the kind of experiment: CLSI M38-A2 based in vitro susceptibility screening (XTT or resazurin), growth at fixed concentration. Type of test: cell-based, Madurella mycetomatis. The note with it: Madurella mycetomatis; for Percent fungal survival at 100 µM: read-out: Percentage survival at 100um, 100 uM A (second replicate column). In general terms: Tetrazolium assays rely on reduction of a dye to a coloured formazan, in cell work by metabolically active cells.

The mark [1] stands for this setting: mean of replicates, read-out: Percentage survival at 25um, 25 uM mean.
Where [2] appears, read: replicate A, read-out: Percentage survival at 25um, 25 um A.
Setting [3] is: replicate B, read-out: Percentage survival at 25um, 25 uM B.
Where [4] appears, read: replicate C, read-out: Percentage survival at 25um, 25 uM C.
The mark [5] stands for this setting: mean of replicates, read-out: Percentage survival at 100um, 100 uM mean.
Where [6] appears, read: replicate 1, read-out: Percentage survival at 100um, 100 uM A.
Setting [7] is: replicate 2, read-out: Percentage survival at 100um, 100 uM A.
Where [8] appears, read: replicate 3, read-out: Percentage survival at 100um, 100 uM A.
Setting [9] is: mean, read-out: Percentage survival at 25um, 25 uM mean.
Setting [10] is: mean, read-out: Percentage survival at 100um, 100 uM mean.
Setting [11] is: replicate (first column), read-out: Percentage survival at 100um, 100 uM A.
Where [12] appears, read: replicate (second column), read-out: Percentage survival at 100um, 100 uM A.
Where [13] appears, read: replicate (third column), read-out: Percentage survival at 100um, 100 uM A.
Where [14] appears, read: mean of three, M. mycetomatis MM55, read-out: Percentage survival at 25um, 25 uM mean.
[15] abbreviates: replicate A, M. mycetomatis MM55, read-out: Percentage survival at 25um, 25 um A.
The mark [16] stands for this setting: replicate B, M. mycetomatis MM55, read-out: Percentage survival at 25um, 25 uM B.
Setting [17] is: replicate C, M. mycetomatis MM55, read-out: Percentage survival at 25um, 25 uM C.
Where [18] appears, read: mean of three, M. mycetomatis MM55, read-out: Percentage survival at 100um, 100 uM mean.
Setting [19] is: replicate 1, M. mycetomatis MM55, read-out: Percentage survival at 100um, 100 uM A (first replicate column).
[20] abbreviates: replicate 2, M. mycetomatis MM55.
Where [21] appears, read: replicate 3, M. mycetomatis MM55, read-out: Percentage survival at 100um, 100 uM A (third replicate column).
The mark [22] stands for this setting: mean of three replicates, read-out: Percentage survival at 25um, 25 uM mean.
The mark [23] stands for this setting: mean of three replicates, read-out: Percentage survival at 100um, 100 uM mean.
The mark [24] stands for this setting: replicate 1, read-out: Percentage survival at 100um, 100 uM A (first replicate column).
Where [25] appears, read: replicate 3, read-out: Percentage survival at 100um, 100 uM A (third replicate column).
Where [26] appears, read: first replicate column, read-out: Percentage survival at 100um, 100 uM A.
Where [27] appears, read: second replicate column, read-out: Percentage survival at 100um, 100 uM A.
Setting [28] is: third replicate column, read-out: Percentage survival at 100um, 100 uM A.
Where [29] appears, read: mean of replicates, MM55, read-out: Percentage survival at 25um, 25 uM mean.
Where [30] appears, read: replicate A, MM55, read-out: Percentage survival at 25um, 25 um A.
Setting [31] is: replicate B, MM55, read-out: Percentage survival at 25um, 25 uM B.
[32] abbreviates: replicate C, MM55, read-out: Percentage survival at 25um, 25 uM C.
[33] abbreviates: mean of replicates, MM55, read-out: Percentage survival at 100um, 100 uM mean.
Setting [34] is: replicate 1, MM55, read-out: Percentage survival at 100um, 100 uM A.
[35] abbreviates: replicate 2, MM55, read-out: Percentage survival at 100um, 100 uM A.
Where [36] appears, read: replicate 3, MM55, read-out: Percentage survival at 100um, 100 uM A.

As to `CC1CCc2c(N3CCC(O)CC3)c(F)cc3c(=O)c(C(=O)O)cn1c23` (centres unmarked) [MMV637659], the activity at 25 µM by setting is: under setting [1], 88.6%; under setting [2], 77.6%; under setting [3], 95.3%; under setting [4], 93%. The activity at 100 µM is, setting by setting: under setting [5], 77.8%; under setting [6], 65.4%; under setting [7], 81.1%; under setting [8], 86.9%.

With `OB1OCc2c1ccc(Cl)c2F` [MMV1782226], the activity at 25 µM stood at 54.9% under setting [9], 54.6% under setting [2], 46.9% under setting [3] and 63.1% under setting [4]. For the same compound, the activity at 100 µM under setting [10] is 64.2%, the activity at 100 µM under setting [11] amounted to 55.3%, the activity at 100 µM under setting [12] came out at 77.4% and the activity at 100 µM under setting [13] was determined as 59.8%.

For `CO[C@@]1(NC(=O)Cc2cccs2)C(=O)N2C(C(=O)O)=C(COC(N)=O)CS[C@@H]21` [MMV1578559], the activity at 25 µM by setting is: under setting [14], 84.2%; under setting [15], 91.6%; under setting [16], 86.2%; under setting [17], 74.6%. Besides, the activity at 100 µM reads like this: under setting [18], 90.3%; under setting [19], 87.3%; under setting [21], 85.1%. In addition, the Percent fungal survival at 100 µM under setting [20] came to 98.4%.

As for `O=S(=O)(NCB(O)O)c1ccc(-c2nnn[nH]2)cc1C(F)(F)F` [MMV1782411], the activity at 25 µM was found to be 83.9% under setting [22], 61.4% under setting [2], 112% under setting [3] and 78.7% under setting [4]. Moreover, the activity at 100 µM reads like this: under setting [23], 88.5%; under setting [24], 91.5%; under setting [25], 90.2%. In addition, the Percent fungal survival at 100 µM (replicate 2) is 83.7%.

Take `Cc1oncc1C(=O)Nc1ccc(C(F)(F)F)cc1` [MMV003291]: the activity at 25 µM under setting [22] came to 85.3%, the activity at 25 µM under setting [2] was 82.1%, the activity at 25 µM under setting [3] came out at 92.4% and the activity at 25 µM under setting [4] was 81.5%. Besides, the activity at 100 µM reads like this: under setting [26], 55.9%; under setting [23], 62.5%; under setting [27], 52.4%; under setting [28], 79%.

On to `CCc1oc2ccccc2c1C(=O)c1ccc(O)cc1` [MMV1578558], for which the activity at 25 µM under setting [1] amounted to 91.9%, the activity at 25 µM under setting [2] is 95.8%, the activity at 25 µM under setting [3] amounted to 97% and the activity at 25 µM under setting [4] worked out at 82.9%. For the same compound, the activity at 100 µM runs as follows: under setting [5], 2.03%; under setting [6], -1.97%; under setting [7], 6.39%; under setting [8], 1.66%.

Regarding `O=C(NCc1ccccc1Cl)c1cnc2ccccc2n1` [MMV1230557], the activity at 25 µM came to 56.8% under setting [14], 50.8% under setting [15], 54.2% under setting [16] and 65.3% under setting [17]. The activity at 100 µM runs as follows: under setting [18], 67.2%; under setting [19], 41.9%; under setting [21], 88.1%. Moreover, the Percent fungal survival at 100 µM under setting [20] is 71.7%.

As for `NC(=O)c1cnccn1` [MMV003249], the activity at 25 µM came to 83.1% under setting [22], 89.2% under setting [2], 75.7% under setting [3] and 84.4% under setting [4]. The activity at 100 µM by setting is: under setting [23], 60%; under setting [24], 53.7%; under setting [25], 56.3%. Further, under “replicate 2”, the Percent fungal survival at 100 µM came out at 70%.

In the case of `O=C1CCC(N2C(=O)c3ccccc3C2=O)C(=O)N1` (centres unmarked) [MMV002612], the activity at 25 µM runs as follows: under setting [22], 90.8%; under setting [2], 89.5%; under setting [3], 90.5%; under setting [4], 92.5%. The activity at 100 µM under setting [23] is 85.3%, the activity at 100 µM under setting [24] stood at 88.1% and the activity at 100 µM under setting [25] came to 82.9%. For the same compound, where the note is “replicate 2”, the Percent fungal survival at 100 µM stood at 84.8%.

As for `O=C(Cc1ccccc1F)Nc1nc2ccccc2[nH]1` [MMV1578576], the activity at 25 µM worked out at 70.6% under setting [1], 73.4% under setting [2], 74.5% under setting [3] and 63.8% under setting [4]. The activity at 100 µM reads like this: under setting [5], 78.7%; under setting [6], 102%; under setting [7], 65.1%; under setting [8], 69.2%.

With `O=C(O)[C@H]1C2CCC(CC2)[C@@H]1Nc1nc(-c2c[nH]c3ncc(F)cc23)ncc1F` [MMV1593516], the activity at 25 µM was determined as 97.3% under setting [22], 98.8% under setting [2], 105% under setting [3] and 88.2% under setting [4]. The activity at 100 µM under setting [26] stood at 107%, the activity at 100 µM under setting [23] came out at 98.7%, the activity at 100 µM under setting [27] was 103% and the activity at 100 µM under setting [28] was determined as 86.5%.

Take `CC(N)C12CC3CC(CC(C3)C1)C2` (centres unmarked) [MMV637855]: the activity at 25 µM runs as follows: under setting [29], 86%; under setting [30], 78.5%; under setting [31], 82.6%; under setting [32], 96.9%. Also, the activity at 100 µM turned out to be 60.7% under setting [33], 60.1% under setting [34], 57.9% under setting [35] and 64% under setting [36].

As for `CCNC(=O)Nc1cc(-c2ccccc2)c(-c2cncc(C(=O)O)c2)cn1` [MMV1593534], the activity at 25 µM reads like this: under setting [9], 85.6%; under setting [2], 94.2%; under setting [3], 90.1%; under setting [4], 72.5%. In addition, the activity at 100 µM is, setting by setting: under setting [10], 53.4%; under setting [11], 4.59%; under setting [12], 76.9%; under setting [13], 78.8%.

In the case of `COc1ccc(CNC(=O)C2CCN([C@H](C)c3cccc4ccccc34)CC2)cc1` [MMV1634397], the activity at 25 µM by setting is: under setting [29], 45.7%; under setting [30], 62.4%; under setting [31], 66.9%; under setting [32], 7.76%. The activity at 100 µM was 4.13% under setting [33], 3.82% under setting [34], -0.868% under setting [35] and 9.43% under setting [36].

As to `CC(C)Nc1ncnc2c1cnn2-c1ccc(Cl)cc1` [MMV108465], the activity at 25 µM is 63.1% under setting [1], 53.4% under setting [2], 64.9% under setting [3] and 71.1% under setting [4]. Besides, the activity at 100 µM runs as follows: under setting [5], 22.2%; under setting [6], 0.471%; under setting [7], 1.77%; under setting [8], 64.4%.

Turning to `CCc1cc(O)c(Oc2cccnc2N)cc1F` [MMV1580854], the activity at 25 µM under setting [14] amounted to 86.4%, the activity at 25 µM under setting [15] came to 97.5%, the activity at 25 µM under setting [16] turned out to be 88.8% and the activity at 25 µM under setting [17] was determined as 72.9%. Further, the activity at 100 µM amounted to 101% under setting [18], 78.2% under setting [19] and 132% under setting [21]. For the same compound, the Percent fungal survival at 100 µM under setting [20] worked out at 91.9%.
